# Experimental data published in patent publication US20240180898A1, “USE OF AMINOTHIAZOLE DERIVATIVE IN TREATMENT OF IMMUNE INFLAMMATION” (INNAMUNE PHARMACEUTICAL CO. LTD., priority 2021, published 2024).
# System: middle cerebral artery occlusion (MCAO) model
# Assay: reperfusion injury after acute cerebral infarction (MCAO model)
# Format: in vivo, mouse
# Conditions: 15 mg/kg intravenously, 1 hour ischemia, 24 hours reperfusion
# Procedure: Preparation and grouping of a mouse model of reperfusion injury after acute cerebral infarction: Model preparation: Adult male C57BL/6 mice (8-10 weeks old, weighing 22-25 g) were fasted for 8 hours before surgery and allowed to drink freely. Intraperitoneal injection of 1% pentobarbital sodium solution for anesthesia. […]
smiles,measurement,value
"O=C(CCN1CCN(Cc2ccccc2)CC1)Nc1nc(-c2ccccc2)cs1 [INNA1605, 3-(4-benzylpiperazine-1-yl)-N-(4-phenylthiazole-2-yl) propionamide]",reduction of infarct volume of acute cerebral infarction,80%
